Measurements from patent US20140329844A1, “METHOD OF RESTORING THE INCRETIN EFFECT” (NEURENDO PHARMA, LLC, priority 2006, published 2014).

Test: Daily blood glucose profile of a subject with early stage Type 2 diabetes during GNTI administration
Format: in vivo
Details: human; for Average blood glucose by day of week / Readings In Target, 65-155 (as %) / Readings Lows, 51-64 (as %): GNTI once weekly
Procedure: The daily blood glucose profile of a subject with early stage, [non-insulin dependent] Type 2 diabetes was monitored during extended periods of administration of guanidinylated naltrindole (GNTI).
A weekly dose of about 70 ng/kg was administered.
FIGS. 1-3 illustrate the blood glucose readings over an extended period of time, a modal week and a modal day. The target blood glucose range was 65-155 mg/dL. Table 3 illustrates that 98% of the readings were within the target range. The other 2% of the readings fell below the target range and fell between 51-64 mg/dL.
FIGS. 1-3 illustrate the subject's blood glucose readings over an extended period of time, a modal week, and a modal day. Accordingly, 227 blood glucose readings were taken, averaging 92 mg/dL over a 15 day period. 98% of all readings were between 65 and 127 mg/dL, and 2% between […], representing a very narrow overall spread.

[1] = GNTI about 70 ng/kg weekly, Early AM 00:00-04:59
[2] = GNTI about 70 ng/kg weekly, Evening 15:00-18:59
[3] = GNTI about 70 ng/kg weekly, Midday 11:00-14:59
[4] = GNTI about 70 ng/kg weekly, Morning 05:00-10:59
[5] = GNTI about 70 ng/kg weekly, Night 19:00-23:59
[6] = GNTI about 70 ng/kg weekly, all readings, 15 day period
[7] = GNTI about 70 ng/kg weekly, of 227 readings
[8] = GNTI about 70 ng/kg weekly, overall

NC(N)=Nc1ccc2[nH]c3c(c2c1)C[C@@]1(O)[C@H]2Cc4ccc(O)c5c4[C@@]1(CCN2CC1CC1)[C@H]3O5 [GNTI, guanidinylated naltrindole]
Average blood glucose [1]: 79 mg/dL | Readings In Target, 65-155 mg/dL [1]: 100% | Average blood glucose [2]: 91 mg/dL | Readings In Target, 65-155 mg/dL [2]: 100% | Average blood glucose [3]: 92 mg/dL | Readings In Target, 65-155 mg/dL [3]: 98% | Readings Lows, 51-64 mg/dL [3]: 2% | Average blood glucose [4]: 90 mg/dL | Readings In Target, 65-155 mg/dL [4]: 97% | Readings Lows, 51-64 mg/dL [4]: 3% | Average blood glucose [5]: 95 mg/dL | Readings In Target, 65-155 mg/dL [5]: 97% | Readings Lows, 51-64 mg/dL [5]: 3% | Readings between 61 and 65 mg/dL [6]: 2% | Readings between 65 and 127 mg/dL [6]: 98% | Number of readings High (156-300 mg/dL) [7]: 0 | Number of readings Low (51-64 mg/dL) [7]: 5 | Number of readings Target (65-155 mg/dL) [7]: 222 | Number of readings Very High (301-601 mg/dL) [7]: 0 | Number of readings Very Low (0-50 mg/dL) [7]: 0 | Percent of readings High (156-300 mg/dL) [8]: 0% | Percent of readings Very High (301-601 mg/dL) [8]: 0% | Percent of readings Very Low (0-50 mg/dL) [8]: 0% | Readings In Target, 65-155 mg/dL [8]: 98% | Readings Lows, 51-64 mg/dL [8]: 2% | Readings in the hypoglycemic range (GNTI about 70 ng/kg weekly, readings below target range): none of these readings were in the hypoglycemic range | Average blood glucose by day of week (Fri): 96 mg/dL | Readings In Target, 65-155 (as %) (Fri): 100% | Average blood glucose by day of week (Mon): 92 mg/dL | Readings In Target, 65-155 (as %) (Mon): 100% | Average blood glucose by day of week (Sat): 92 mg/dL | Readings In Target, 65-155 (as %) (Sat): 100% | Average blood glucose by day of week (Sun): 92 mg/dL | Readings In Target, 65-155 (as %) (Sun): 100% | Average blood glucose by day of week (Thur): 94 mg/dL | Readings In Target, 65-155 (as %) (Thur): 100% | Average blood glucose by day of week (Tue): 87 mg/dL | Readings In Target, 65-155 (as %) (Tue): 87% | Readings Lows, 51-64 (as %) (Tue): 13% | Average blood glucose by day of week (Wed): 88 mg/dL | Readings In Target, 65-155 (as %) (Wed): 93% | Readings Lows, 51-64 (as %) (Wed): 7% | Average blood glucose by day of week (Weekdays): 92 mg/dL | Readings In Target, 65-155 (as %) (Weekdays): 97% | Readings Lows, 51-64 (as %) (Weekdays): 3% | Average blood glucose by day of week (Weekends): 92 mg/dL | Readings In Target, 65-155 (as %) (Weekends): 100% | Highest Blood Glucose (early stage Type 2 diabetes, GNTI about 70 ng/kg weekly, 15 days): 127 mg/dL
